According to patent publication US7671055B2, “Insecticidal 3-(dihaloalkenyl) phenyl derivatives” (FMC Corporation, priority 2004, dated 2010):

Tested on: tobacco budworm (Heliothis virescens [Fabricius])
Test: surface-treated diet test against tobacco budworm
Type: in vivo
Conditions: 0.25 millimolar on surface of diet; second instar larvae; five-day exposure; inhibition of insect weight relative to untreated controls
Protocol: Candidate insecticides were evaluated for activity against the tobacco budworm (Heliothis virescens [Fabricius]) in a surface-treated diet test.
In this test one mL of molten (65-70° C.) wheat germ-based artificial diet was pipetted into each well of a four by six (24 well) multi-well plate (ID#430345-15—[…].×17.6 mm deep; Corning Costar Corp., One Alewife Center, Cambridge, Mass. 02140). The diet was allowed to cool to ambient temperature before treatment with candidate insecticide.
For a determination of insecticidal activity, solutions of the candidate insecticides were prepared for testing using a Packard 204DT Multiprobe® Robotic System (Packard Instrument Company, 800 Research Parkway, Meriden, Conn. 06450), in which the robot first diluted a standard 50 millimolar DMSO solution of candidate insecticide with a 1:1 water/acetone solution (V/V) in a ratio of 1:7 stock solution to water/acetone. The robot subsequently pipetted 40 microliters of the so-prepared solution onto the surface of the diet in each of three wells in the 24 multi-well plate. The process was repeated with solutions of seven other candidate insecticides. […]
After the five-day exposure period insecticidal activity for each rate of application of candidate insecticide was assessed as percent inhibition of insect weight relative to the weight of insects from untreated controls. […]

Compound	Percent Growth Inhibition
FC(F)(F)c1ccc(N2CCN(c3cc(OCC=C(Cl)Cl)cc(Cl)c3Br)CC2)nc1 [Compound 19, 5-(3,3-dichloroprop-2-enyloxy)-2-bromo-3-chloro-1-{4-[5-(trifluoromethyl)(2-pyridyl)]piperazinyl}-benzene]	100%
CC1(C)Cc2cccc(OCCCCOc3cc(OCC=C(Cl)Cl)cc(Cl)c3Cl)c2O1 [Compound 2, 7-{4-[5-(3,3-dichloroprop-2-enyloxy)-2,3-dichlorophenoxy]butoxy}-2,2-dimethyl-2,3-dihydro-benzo[b]furan]	100%
